According to US20250221410A1, “SUBSTITUTED 2-C-AZINES AND SALTS THEREOF, AND USE THEREOF AS HERBICIDAL ACTIVE SUBSTANCES” (BAYER AKTIENGESELLSCHAFT, priority 2022, published 2025):

What was measured:
VERPE: Veronica persica [1] = test: Post-emergence herbicidal efficacy at 80 g/ha, VERPE; format: in vivo; details: visual rating about 3 weeks after treatment vs untreated controls
In short: (§1)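 Visual percent activity versus untreated plants (100% = plants died) was scored roughly 3 weeks after treatment. Plants grew in greenhouse pots of sandy loam and got a post-emergence spray at one-leaf stage: WP or EC compound with 0.5% additive, 600 l/ha water.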

[2] = system: ABUTH: Abutilon theophrasti; test: Post-emergence herbicidal efficacy at 80 g/ha, ABUTH; format: in vivo; details: rated visually after about 3 weeks vs untreated controls, 100% = plants have died, 0% = like control plants
Method: (§2) Seeds of monocotyledonous and dicotyledonous weeds and crop plants were placed in sandy loam in plastic or organic planting pots, covered with soil and cultivated in a greenhouse under controlled growth conditions. 2 to 3 weeks after sowing, the test plants were treated at the one-leaf stage. The compounds of the invention, formulated in the form of wettable powders (WP) or as emulsion concentrates (EC), were then sprayed onto the green parts of the plants as aqueous suspension or emulsion with addition of 0.5% additive at a water application rate of 600 l/ha (converted). After the test plants had been kept in the greenhouse under optimum growth conditions for about 3 weeks, the activity of the preparations was rated visually in comparison to untreated controls. For example, 100% activity=the plants have died, 0% activity=like control plants. Tables B1 to B10 below show the effects of selected compounds of the general formula (I) according to Table 1 on various harmful plants and an application rate corresponding to 80 g/ha, which were obtained by the experimental procedure mentioned above.

[3] = system: ABUTH: Abutilon theophrasti; test: Pre-emergence herbicide efficacy at 80 g/ha, ABUTH; format: in vivo; details: scored visually after about 3 weeks
In short: (§3)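 Pre-emergence soil-surface spray, WP/EC formulation, 0.5% additive, 600 l/ha water volume. Greenhouse, ~3 weeks. Visual % activity vs untreated (100% = dead plants).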

VERPE: Veronica persica [4] = test: Pre-emergence herbicide efficacy at 80 g/ha, VERPE; format: in vivo; details: scored visually after about 3 weeks
In short: as §3

SETVI: Setaria viridis [5] = test: Pre-emergence herbicide efficacy at 80 g/ha, SETVI; format: in vivo; details: scored visually after about 3 weeks
Source text: (§4) Seeds of monocotyledonous and dicotyledonous weed plants and crop plants were placed in plastic or organic planting pots and covered with soil. The compounds of the invention, formulated in the form of wettable powders (WP) or as emulsion concentrates (EC), were then applied to the surface of the covering soil as aqueous suspension or emulsion with addition of 0.5% additive at a water application rate equivalent to 600 l/ha. After the treatment, the pots were placed in a greenhouse and kept under good growth conditions for the test plants. After about 3 weeks, the efficacy of the preparations was scored visually in comparison with untreated controls as percentages. For example, 100% activity=the plants have died, 0% activity=like control plants. Tables D1 to D12 below show the effects of selected compounds of the general formula (I) according to Table 1 on various harmful plants and an application rate corresponding to 80 g/ha, which were obtained by the experimental procedure mentioned above.

POLCO [6] = test: Post-emergence herbicidal efficacy at 80 g/ha, POLCO; format: in vivo, Polygonum convolvulus; details: visual rating about 3 weeks after treatment vs untreated controls
Method: as §2

[7] = system: DIGSA: Digitaria sanguinalis; test: Post-emergence herbicidal efficacy at 80 g/ha, DIGSA; format: in vivo; details: visual rating about 3 weeks after treatment vs untreated controls
Method: as §2

[8] = system: AMARE: Amaranthus retroflexus; test: Post-emergence herbicidal efficacy at 80 g/ha, AMARE; format: in vivo; details: visual rating about 3 weeks after treatment vs untreated controls
In short: as §1

POLCO [9] = test: Pre-emergence herbicide efficacy at 80 g/ha, POLCO; format: in vivo; details: Polygonum convolvulus, scored visually after about 3 weeks
In short: as §3

LOLRI: Lolium rigidum = test: Pre-emergence herbicide efficacy at 80 g/ha, LOLRI; format: in vivo; details: scored visually after about 3 weeks
Source text: as §4

[10] = system: DIGSA: Digitaria sanguinalis; test: Pre-emergence herbicide efficacy at 80 g/ha, DIGSA; format: in vivo; details: scored visually after about 3 weeks
In short: as §3

[11] = system: ECHCG: Echinochloa crus-galli; test: Pre-emergence herbicide efficacy at 80 g/ha, ECHCG; format: in vivo; details: scored visually after about 3 weeks
Source text: as §4

[12] = system: ALOMY: Alopecurus myosuroides; test: Pre-emergence herbicide efficacy at 80 g/ha, ALOMY; format: in vivo; details: scored visually after about 3 weeks
Source text: as §4

[13] = system: ALOMY: Alopecurus myosuroides; test: Post-emergence herbicidal efficacy at 80 g/ha, ALOMY; format: in vivo; details: visual rating about 3 weeks after treatment vs untreated controls
Method: as §2

SETVI: Setaria viridis [14] = test: Post-emergence herbicidal efficacy at 80 g/ha, SETVI; format: in vivo; details: visual rating about 3 weeks after treatment vs untreated controls
Method: as §2

[15] = system: MATIN: Matricaria inodora; test: Pre-emergence herbicide efficacy at 80 g/ha, MATIN; format: in vivo; details: scored visually after about 3 weeks
Source text: as §4

[16] = system: AMARE: Amaranthus retroflexus; test: Pre-emergence herbicide efficacy at 80 g/ha, AMARE; format: in vivo; details: scored visually after about 3 weeks
In short: as §3

[17] = system: ECHCG: Echinochloa crus-galli; test: Post-emergence herbicidal efficacy at 80 g/ha, ECHCG; format: in vivo; details: visual rating about 3 weeks after treatment vs untreated controls
Method: as §2

SMILES: FC(F)c1cc(-c2c(Cl)cccc2Cc2ncc(Cl)cn2)on1 [Example 1-140]
- Post-emergence efficacy against VERPE (VERPE: Veronica persica [1]): 100%
- Post-emergence efficacy at 80 g/ha against ABUTH in % [2]: 100%
- Pre-emergence efficacy against ABUTH in % [3]: 100%
- Pre-emergence efficacy against VERPE in % (VERPE: Veronica persica [4]): 100%
- Pre-emergence efficacy against SETVI in % (SETVI: Setaria viridis [5]): 100%
- Post-emergence efficacy against POLCO (POLCO [6]): 100%
- Post-emergence efficacy against DIGSA [7]: 90%
- Post-emergence efficacy against AMARE [8]: 100%
- Pre-emergence efficacy against POLCO in % (POLCO [9]): 90%
- Pre-emergence efficacy against LOLRI in % (LOLRI: Lolium rigidum): 90%
- Pre-emergence efficacy against DIGSA in % [10]: 100%
- Pre-emergence efficacy against ECHCG in % [11]: 100%
- Pre-emergence efficacy against ALOMY in % [12]: 90%
- Post-emergence efficacy against ALOMY [13]: 80%
- Post-emergence efficacy against SETVI (SETVI: Setaria viridis [14]): 80%
- Pre-emergence efficacy against MATIN in % [15]: 80%
- Pre-emergence efficacy against AMARE in % [16]: 100%
- Post-emergence efficacy against ECHCG [17]: 90%
